Test results from patent US10941157B2, “Pesticidal compositions and uses thereof” (Gilead Apollo, LLC, priority 2015, dated 2021).
Converted amounts (≈) assume the structure as drawn. Like-named read-outs stand apart in the source and are kept apart here.

What was measured:
[1] = system: Collectotrichum graminicola (Cg); assay: In vitro pathogen growth inhibition assay, Cg; type: cell-based; settings: 48 h
Procedure, shortened: (§1)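 Spores in 17% V8 liquid medium, or 1.5 mm Rs mycelial plugs in ¼ PDB, incubated with compound; final concentration checked by OD600 for precipitation. OD readings at 24 and 48 h, blank-subtracted, plus visual ratings; value is concentration giving ≥90% growth inhibition.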

[2] = system: Phakopsora pachyrhizi; assay: Foliar protection test for Asian soybean rust control; type: in vivo; settings: foliar application to soybean (Glycine max AG4832), percent disease area evaluated 14 days later
[3] = system: Puccinia triticina; assay: Foliar protection test for wheat leaf rust control; type: in vivo; settings: foliar application to wheat (Triticum aestivum cv. Winterhawk), evaluated 10 days later
[4] = system: Fusarium graminearum; type: in vivo; settings: spray on flowering Triticum aestivum cv. Samson, inoculated 24 hours after treatment, evaluated 14 days later
[5] = system: Rhizoctonia solani (Rs); assay: In vitro pathogen growth inhibition assay, Rs (mycelial plugs); type: cell-based; settings: Rhizoctonia solani, 48 h, mycelial plugs
Procedure, shortened: (§2)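 Spores of Dm, Fv and Pc were diluted in 17% V8 liquid medium; Rs used 1.5 mm mycelial plugs in ¼ PDB. Compounds from 2.5 mg/ml DMSO stocks were combined with inoculum, growth was read by OD600 at 24 and 48 h with blank subtraction, and the reported value is the concentration giving ≥90% inhibition.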

[6] = system: Botrtyis cinerea (Bc); assay: In vitro pathogen growth inhibition assay, Bc; type: cell-based; settings: 48 h
Procedure, shortened: as §1

[7] = system: Mycosphaerella graminicola (synthetic Septoria tritici); assay: Foliar protection test for wheat septoria leaf blotch control; type: in vivo; settings: foliar spray on Triticum aestivum cv. WinterHawk, inoculated 1 hour after treatment, evaluated 16 days later
[8] = system: Septoria tritici (St); assay: In vitro pathogen growth inhibition assay, St; type: cell-based; settings: Zymoseptoria tritici, 48 h
Procedure, shortened: as §1

[9] = system: Sphaerotheca fuliginea; assay: Foliar protection for cucumber powdery mildew control; type: in vivo; settings: foliar spray on Cucumis sativus cv. Straight Eight, inoculated 24 hours after treatment, evaluated 7 days later
Procedure, shortened: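 Cucumber plants (cv. Straight Eight, 10 days old) sprayed to wetness on both leaf surfaces, then inoculated 24 h later by shaking sporulating stock plants over them. Held at 23–27 °C, 16 h light, 60% RH. Mildew colonization scored 7 days after inoculation, at compound concentrations of 10 ppm or lower.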

[10] = system: Fusarium moniliforme (Fm); assay: In vitro pathogen growth inhibition assay, Fm; type: cell-based; settings: Fusarium verticillioides
Procedure, shortened: as §1

[11] = system: Phytophthora capsici (Pc); assay: In vitro pathogen growth inhibition assay, Pc; type: cell-based; settings: 48 h
Procedure, shortened: as §2

[12] = system: Diplodia maydis (Dm); assay: In vitro pathogen growth inhibition assay, Dm; type: cell-based; settings: Stenocarpella maydis, 48 h
Procedure, shortened: as §2

[13] = system: Fusarium virguliforme (Fv); assay: In vitro pathogen growth inhibition assay, Fv; type: cell-based
Procedure, shortened: as §2

[14] = system: Blumeria graminis f. sp. hordei; assay: Foliar protection test for barley powdery mildew control; type: in vivo; settings: foliar spray on Hordeum vulgare cv. Perry, inoculated 24 hours after treatment, evaluated 7 days later
Procedure, shortened: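 Six-day-old barley (cv. Perry) sprayed to wetness on both leaf sides; 24 h later inoculated by shaking spores from infected stock plants. Kept at 20 to 22° C, 70% relative humidity; mildew colonization assessed 7 days later.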

[15] = ≥90% inhibition, 48 hours vs 2% DMSO control, read-out: Compound Concentration (ppm) sufficient for ≥90% inhibition of growth, Cg
[16] = ≥90% inhibition, 48 hours vs 2% DMSO control, read-out: Compound Concentration (ppm) sufficient for ≥90% inhibition of growth, Rs
[17] = ≥90% inhibition, 48 hours vs 2% DMSO control, read-out: Compound Concentration (ppm) sufficient for ≥90% inhibition of growth, Bc
[18] = ≥90% inhibition, 48 hours vs 2% DMSO control, read-out: Compound Concentration (ppm) sufficient for ≥90% inhibition of growth, St
[19] = ≥90% inhibition, 48 hours vs 2% DMSO control, read-out: Compound Concentration (ppm) sufficient for ≥90% inhibition of growth, Fm
[20] = ≥90% inhibition, 48 hours vs 2% DMSO control, read-out: Compound Concentration (ppm) sufficient for ≥90% inhibition of growth, Pc
[21] = ≥90% inhibition, 48 hours vs 2% DMSO control, read-out: Compound Concentration (ppm) sufficient for ≥90% inhibition of growth, Dm
[22] = ≥90% inhibition, 48 hours vs 2% DMSO control, read-out: Compound Concentration (ppm) sufficient for ≥90% inhibition of growth, Fv
[23] = ≥90% growth inhibition, 48 hours, vs 2% DMSO control, read-out: Compound Concentration (ppm) sufficient for ≥90% inhibition of Cg
[24] = ≥90% growth inhibition, 48 hours, vs 2% DMSO control, read-out: Compound Concentration (ppm) sufficient for ≥90% inhibition of Rs
[25] = ≥90% growth inhibition, 48 hours, vs 2% DMSO control, read-out: Compound Concentration (ppm) sufficient for ≥90% inhibition of Bc
[26] = ≥90% growth inhibition, 48 hours, vs 2% DMSO control, read-out: Compound Concentration (ppm) sufficient for ≥90% inhibition of St
[27] = ≥90% growth inhibition, 48 hours, vs 2% DMSO control, read-out: Compound Concentration (ppm) sufficient for ≥90% inhibition of Fm
[28] = ≥90% growth inhibition, 48 hours, vs 2% DMSO control, read-out: Compound Concentration (ppm) sufficient for ≥90% inhibition of Pc
[29] = ≥90% growth inhibition, 48 hours, vs 2% DMSO control, read-out: Compound Concentration (ppm) sufficient for ≥90% inhibition of Dm
[30] = ≥90% growth inhibition, 48 hours, vs 2% DMSO control, read-out: Compound Concentration (ppm) sufficient for ≥90% inhibition of Fv

SMILES | IC90 [1, 15] [µg/mL] | Asian Soybean Rust Control at a compound concentration of 25 ppm or lower [2] | Wheat Leaf Rust Control at a compound concentration of 10 ppm or lower [3] | Wheat Fusarium Head Blight Control at a compound concentration of 25 ppm or lower [4] | IC90 [5, 16] [µg/mL] | IC90 [6, 17] [µg/mL] | Septoria Leaf Blotch Control at a compound concentration of 25 ppm or lower [7] | IC90 [8, 18] [µg/mL] | Cucumber Powdery Mildew Control at a compound concentration of 10 ppm or lower [9] | IC90 [10, 19] [µg/mL] | IC90 [11, 20] [µg/mL] | IC90 [12, 21] [µg/mL] | IC90 [13, 22] [µg/mL] | Barley Powdery Mildew Control at a compound concentration of 10 ppm or lower [14] | IC90 [1, 23] [µg/mL] | IC90 [5, 24] [µg/mL] | IC90 [6, 25] [µg/mL] | IC90 [8, 26] [µg/mL] | IC90 [10, 27] [µg/mL] | IC90 [11, 28] [µg/mL] | other results
COCCO[C@@H](Cn1c(=O)n(C(C)C(=O)NC(C)C)c(=O)c2c(C)c(-n3nccn3)sc21)c1cc(F)ccc1OC (stereo partly drawn) [Compound I-082, 2-(1-((R)-2-(5-fluoro-2-methoxyphenyl)-2-(2-methoxyethoxy)ethyl)-5-methyl-2,4-dioxo-6-(2H-1,2,3-triazol-2-yl)-1,4-dihydrothieno[2,3-d]pyrimidin-3 (2H)-yl)-N-isopropylpropanamide] | 0.4 (≈ 0.68 µM) | B (from 50 to 69% control of Asian soybean rust) | B (from 50 to 69% control of wheat leaf rust) | C (from 25 to 49% control of wheat fusarium head blight) | 0.24 (≈ 0.408 µM) | 2 (≈ 3.4 µM) | AA (≥85% control of wheat septoria leaf blotch) | 30 (≈ 51 µM) | AA (≥85% control of cucumber powdery mildew) | 0.08 (≈ 0.136 µM) | 10 (≈ 17 µM) | 0.4 (≈ 0.68 µM) | 0.4 (≈ 0.68 µM) | AA (≥85% control of barley powdery mildew) |  |  |  |  |  |  | 
COc1ccc(F)cc1[C@@](C)(Cn1c(=O)n(C(C)(C)C(=O)NC(C)C)c(=O)c2c(C)c(-n3nccn3)sc21)OCCC#N [Compound I-274, (S)-2-(1-(2-(2-cyanoethoxy)-2-(5-fluoro-2-methoxyphenyl)propyl)-5-methyl-2,4-dioxo-6-(2H-1,2,3-triazol-2-yl)-1,4-dihydrothieno[2,3-d]pyrimidin-3 (2H)-yl)-N-isopropyl-2-methylpropanamide] |  | A (from 70% to 84% control of Asian soybean rust) | AA (≥85% control of wheat leaf rust) | C (from 25 to 49% control of wheat fusarium head blight) |  |  | AA (≥85% control of wheat septoria leaf blotch) |  | AA (≥85% control of cucumber powdery mildew) |  |  |  |  | AA (≥85% control of barley powdery mildew) | 0.08 (≈ 0.131 µM) | 0.08 (≈ 0.131 µM) | 0.4 (≈ 0.654 µM) | > 50 | 0.08 (≈ 0.131 µM) | 2 (≈ 3.27 µM) | IC90 [12, 29]: 0.4 µg/mL (≈ 0.654 µM); IC90 [13, 30]: 0.4 µg/mL (≈ 0.654 µM)
COc1ccc(F)cc1[C@H](Cn1c(=O)n([C@@H](C)C(=O)N(C)C(C)C)c(=O)c2c(C)c(-n3nccn3)sc21)OCCO [Compound I-089, (S)-2-(1-((R)-2-(5-fluoro-2-methoxyphenyl)-2-(2-hydroxyethoxy)ethyl)-5-methyl-2,4-dioxo-6-(2H-1,2,3-triazol-2-yl)-1,4-dihydrothieno[2,3-d]pyrimidin-3 (2H)-yl)-N-isopropyl-N-methylpropanamide] | > 0.4 | A (from 70% to 84% control of Asian soybean rust) | AA (≥85% control of wheat leaf rust) | D (<25% control of wheat fusarium head blight) | 0.08 (≈ 0.136 µM) | > 0.4 | C (from 25 to 49% control of wheat septoria leaf blotch) | ≥ 10 | AA (≥85% control of cucumber powdery mildew) | 0.08 (≈ 0.136 µM) | ≥ 50 | 2 (≈ 3.4 µM) | > 0.4 | B (from 50 to 69% control of barley powdery mildew) |  |  |  |  |  |  | 
COc1ccc(F)cc1[C@H](Cn1c(=O)n(C(C)(C)C(=O)NC(C)C)c(=O)c2c(C)c(-n3nccn3)sc21)OC1CCOCC1 [Compound I-030, (R)-2-(1-(2-(5-fluoro-2-methoxyphenyl)-2-((tetrahydro-2H-pyran-4-yl)oxy)ethyl)-5-methyl-2,4-dioxo-6-(2H-1,2,3-triazol-2-yl)-1,4-dihydrothieno[2,3-d]pyrimidin-3 (2H)-yl)-N-isopropyl-2-methylpropanamide] | 0.4 (≈ 0.636 µM) | A (from 70% to 84% control of Asian soybean rust) | AA (≥85% control of wheat leaf rust) | B (from 50 to 69% control of wheat fusarium head blight) | 0.08 (≈ 0.127 µM) | 0.4 (≈ 0.636 µM) | B (from 50 to 69% control of wheat septoria leaf blotch) | ≥ 2 | AA (≥85% control of cucumber powdery mildew) | 0.08 (≈ 0.127 µM) | 50 (≈ 79.5 µM) | ≥ 0.4 | 0.4 (≈ 0.636 µM) | AA (≥85% control of barley powdery mildew) |  |  |  |  |  |  | 
COc1ccc(F)cc1[C@H](Cn1c(=O)n(C(C)(C)C(=O)NC2CCC2)c(=O)c2c(C)c(-n3cccn3)sc21)OCCC#N [Compound I-307, (R)-2-(1-(2-(2-cyanoethoxy)-2-(5-fluoro-2-methoxyphenyl)ethyl)-5-methyl-2,4-dioxo-6-(1H-pyrazol-1-yl)-1,4-dihydrothieno[2,3-d]pyrimidin-3 (2H)-yl)-N-cyclobutyl-2-methylpropanamide] |  | C (from 25 to 49% control of Asian soybean rust) | AA (≥85% control of wheat leaf rust) | C (from 25 to 49% control of wheat fusarium head blight) |  |  | B (from 50 to 69% control of wheat septoria leaf blotch) |  | AA (≥85% control of cucumber powdery mildew) |  |  |  |  | AA (≥85% control of barley powdery mildew) | 2 (≈ 3.29 µM) | 0.08 (≈ 0.131 µM) | ≥ 0.4 | > 50 | 0.08 (≈ 0.131 µM) | > 50 | IC90 [12, 29]: 2 µg/mL (≈ 3.29 µM); IC90 [13, 30]: 0.4 µg/mL (≈ 0.657 µM)
